The text below walks through data of BindingDB's records for doi:10.1021/jm300847w (Amgen, 2012).

The nature of the assay: Inhibition of PI3Kdelta in B-cells by proliferation assay.

Each structure is given as a SMILES string.

Usually IC50 stands for the concentration that gives 50% inhibition. A low value points to inhibition by little substance. For `Cc1cccc2nc(-c3ccccc3Cl)c(Cn3nc(C#N)c4c(N)ncnc43)nc12`, the IC50 worked out at 2 nM.
`C[C@H](Nc1ncnc2nc[nH]c12)c1cc2cccc(Cl)c2nc1-c1cscn1` returned an IC50 of 0.5 nM.
